# Tests used:
# Format in all cases: cell-based, mouse
# [1] = tested on: NIH3T3 cells overexpressing Ha-ras; experiment: MTT cell viability, drug sensitivity of Ha-ras overexpressing cells vs parental line; conditions: Ha-ras high-expressing cells / parental cell line, 3 to 4 days
# Description: (§1) With regard to the function-known genes, the genes shown in the left column of Table 2 were used. With regard to the drugs, those shown in Table 1 were dissolved in DMSO to an extent of 100-fold of the maximum concentration for the search of the drugs and used. With regard to the cells, incubated NIH3T3 or ras-NIH3T3 cells were used.
# (§2) Full-length cDNA of each function-known genes was incorporated into an expression vector (pRc-CMV, etc.) and transfected into NIH3T3 cells by a common method. Transformed cells were isolated using the resistance to G-418 as an index and the expression of the transfected gene in each cell was investigated by Western blotting method to select a highly expressing line.
# (§3) Cell viabilities were measured according to the following procedures.
# (§4) 1) From the 2nd to the 11th rows of a 96-well plate were filled with DMEM (50 μl). The 12th row was filled with 100 μl of DMEM.
# (§5) 2) The 1st row was filled with 98 μl of DMEM.
# (§6) 3) Drugs (2 μl each) were added into the 1st row.
# (§7) 4) Continuous double-dilution was conducted from the 1st to the 9th rows. Fifty μl were taken out from the 9th row and discarded. The plate was preserved in a CO2 incubator.
# (§8) 5) Cells (each high-expressing cells and the parental cell line) were detached from the medium using a trypsin solution, suspended in 10% CS-DMEM and transferred to a test tube and cell numbers (cell/ml) were counted.
# (§9) 6) The cells were diluted to a concentration of 1×10^5 cells/ml, and 50 μl of the cell suspension were added to the 1st to the 11th rows of the plate followed by gently stirring.
# (§10) 7) The plate was transferred to the CO2 incubator and incubated for 3 to 4 days.
# (§11) 8) MTT (5 mg/ml in PBS) (10 μl) was added to the 1st to the 12th rows of the plate and incubated in the CO2 incubator at 37° C. for 4 hours.
# (§12) 9) A reaction stop solution (0.04N HCl in isopropanol) (150 μl) was added followed by mixing well and being allowed to stand at room temperature for about 2 hours.
# (§13) 10) Coloration of formazan which was a metabolite of the MTT dye was measured using a microplate reader. The measurement wavelength was 574 nm and the reference wavelength was 655 nm. The 10th and the 11th rows of the plate were 100% controls and the 12th row was a 0% control.
# (§14) As an index for the sensitivity of highly gene-expressing cells and the parental cell line to various drugs, each of the IC40 values thereof was specified and ratios of the IC40 values were calculated. […] After that, logarithmic values of ratios of IC40 values were calculated from each gene.
# [2] = tested on: NIH3T3 cells overexpressing Regucalcin; experiment: MTT cell viability, Regucalcin overexpressing cells vs parental line; conditions: Regucalcin high-expressing cells / parental cell line, 3 to 4 days
# Description: as §1, §2, §3, §4, §5, §6, §7, §8, §9, §10, §11, §12, §13
# (§15) As an index for the sensitivity of highly gene-expressing cells and the parental cell line to various drugs, each of the IC40 values thereof was specified and ratios of the IC40 values were calculated. FIG. 2 and FIG. 3 are the examples where ratios of IC40 values were calculated from a curve showing the dependency on the concentration of the chemical versus the viability. After that, logarithmic values of ratios of IC40 values were calculated from each gene.
# [3] = tested on: NIH3T3 cells overexpressing p33/ING1; experiment: MTT cell viability, p33/ING1 overexpressing cells vs parental line; conditions: p33/ING1 high-expressing cells / parental cell line, 3 to 4 days
# Description: as §1, §2, §3, §4, §5, §6, §7, §8, §9, §10, §11, §12, §13, §15
# [4] = tested on: NIH3T3 cells overexpressing TK; experiment: MTT cell viability, TK overexpressing cells vs parental line; conditions: TK high-expressing cells / parental cell line, 3 to 4 days
# Description: as §1, §2, §3, §4, §5, §6, §7, §8, §9, §10, §11, §12, §13, §15
# [5] = tested on: NIH3T3 cells overexpressing cystatin alpha; experiment: MTT cell viability, cystatin alpha overexpressing cells vs parental line; conditions: cystatin alpha high-expressing cells / parental cell line, 3 to 4 days
# Description: as §1, §2, §3, §4, §5, §6, §7, §8, §9, §10, §11, §12, §13, §15
# [6] = tested on: NIH3T3 cells overexpressing RhoA; experiment: MTT cell viability, RhoA overexpressing cells vs parental line; conditions: RhoA high-expressing cells / parental cell line, 3 to 4 days
# Description: as §1, §2, §3, §4, §5, §6, §7, §8, §9, §10, §11, §12, §13, §15
# [7] = tested on: NIH3T3 cells overexpressing v-src; experiment: MTT cell viability, v-src overexpressing cells vs parental line; conditions: v-src high-expressing cells / parental cell line, 3 to 4 days
# Description: as §1, §2, §3, §4, §5, §6, §7, §8, §9, §10, §11, §12, §13, §15
# [8] = tested on: NIH3T3 cells overexpressing CaMKIIa; experiment: MTT cell viability, CaMKIIa overexpressing cells vs parental line; conditions: CaMKIIa high-expressing cells / parental cell line, 3 to 4 days
# Description: as §1, §2, §3, §4, §5, §6, §7, §8, §9, §10, §11, §12, §13, §14
# [9] = tested on: NIH3T3 cells overexpressing caspase-1; experiment: MTT cell viability, caspase-1 overexpressing cells vs parental line; conditions: caspase-1 high-expressing cells / parental cell line, 3 to 4 days
# Description: as §1, §2, §3, §4, §5, §6, §7, §8, §9, §10, §11, §12, §13, §14
# [10] = tested on: NIH3T3 cells overexpressing CP-antisense; experiment: MTT cell viability, CP-antisense cells vs parental line; conditions: 3 to 4 days
# Description: as §1, §2, §3, §4, §5, §6, §7, §8, §9, §10, §11, §12, §13, §15
# [11] = tested on: NIH3T3 cells overexpressing caspase-2; experiment: MTT cell viability, caspase-2 overexpressing cells vs parental line; conditions: caspase-2 high-expressing cells / parental cell line, 3 to 4 days
# Description: as §1, §2, §3, §4, §5, §6, §7, §8, §9, §10, §11, §12, §13, §15
# [12] = tested on: NIH3T3 cells overexpressing coup; experiment: MTT cell viability, coup overexpressing cells vs parental line; conditions: coup high-expressing cells / parental cell line, 3 to 4 days
# Description: as §1, §2, §3, §4, §5, §6, §7, §8, §9, §10, §11, §12, §13, §15
# [13] = tested on: NIH3T3 cells overexpressing HNF3b; experiment: MTT cell viability, HNF3b overexpressing cells vs parental line; conditions: HNF3b high-expressing cells / parental cell line, 3 to 4 days
# Description: as §1, §2, §3, §4, §5, §6, §7, §8, §9, §10, §11, §12, §13, §14
# [14] = tested on: NIH3T3 cells overexpressing p38-DN; experiment: MTT cell viability, p38-DN overexpressing cells vs parental line; conditions: p38-DN high-expressing cells / parental cell line, 3 to 4 days
# Description: as §1, §2, §3, §4, §5, §6, §7, §8, §9, §10, §11, §12, §13, §14
# [15] = tested on: NIH3T3 cells overexpressing DAN; experiment: MTT cell viability, DAN overexpressing cells vs parental line; conditions: DAN high-expressing cells / parental cell line, 3 to 4 days
# Description: as §1, §2, §3, §4, §5, §6, §7, §8, §9, §10, §11, §12, §13, §15
# [16] = tested on: NIH3T3 cells overexpressing cystatin E; experiment: MTT cell viability, cystatin E overexpressing cells vs parental line; conditions: cystatin E high-expressing cells / parental cell line, 3 to 4 days
# Description: as §1, §2, §3, §4, §5, §6, §7, §8, §9, §10, §11, §12, §13, §15
# [17] = tested on: NIH3T3 cells overexpressing caspase-3; experiment: MTT cell viability, caspase-3 overexpressing cells vs parental line; conditions: caspase-3 high-expressing cells / parental cell line, 3 to 4 days
# Description: as §1, §2, §3, §4, §5, §6, §7, §8, §9, §10, §11, §12, §13, §14
# [18] = tested on: NIH3T3 cells overexpressing HNF1; experiment: MTT cell viability, HNF1 overexpressing cells vs parental line; conditions: HNF1 high-expressing cells / parental cell line, 3 to 4 days
# Description: as §1, §2, §3, §4, §5, §6, §7, §8, §9, §10, §11, §12, §13, §14
# [19] = tested on: NIH3T3 cells overexpressing PKCalpha-KN; experiment: MTT cell viability, PKCalpha-KN overexpressing cells vs parental line; conditions: 3 to 4 days
# Description: as §1, §2, §3, §4, §5, §6, §7, §8, §9, §10, §11, §12, §13, §14
# [20] = tested on: NIH3T3 cells overexpressing erbB2; experiment: MTT cell viability, erbB2 overexpressing cells vs parental line; conditions: erbB2 high-expressing cells / parental cell line, 3 to 4 days
# Description: as §1, §2, §3, §4, §5, §6, §7, §8, §9, §10, §11, §12, §13, §15
# [21] = PKCalpha-KN (first of two lines) high-expressing cells / parental cell line
# [22] = PKCalpha-KN (second of two lines) high-expressing cells / parental cell line
smiles,measurement,setting,value
CNc1ccc2oc(C[C@H]3O[C@@]4(CC[C@H]3C)O[C@H]([C@H](C)C(=O)c3ccc[nH]3)[C@H](C)C[C@H]4C)nc2c1C(=O)O [A23187],logarithmic value of ratio of IC40 values,[1],−0.28
same,logarithmic value of ratio of IC40 values,[2],0.03
same,logarithmic value of ratio of IC40 values,[3],0.26
same,logarithmic value of ratio of IC40 values,[4],0.00
same,logarithmic value of ratio of IC40 values,[5],0.26
same,logarithmic value of ratio of IC40 values,[6],0.26
same,logarithmic value of ratio of IC40 values,[7],−0.19
same,logarithmic value of ratio of IC40 values,[8],0.00
same,logarithmic value of ratio of IC40 values,[9],−0.22
same,logarithmic value of ratio of IC40 values,[10],−0.36
same,logarithmic value of ratio of IC40 values,[11],0.48
same,logarithmic value of ratio of IC40 values,[12],−0.12
same,logarithmic value of ratio of IC40 values,[13],−0.16
same,logarithmic value of ratio of IC40 values,[14],−0.12
same,logarithmic value of ratio of IC40 values,[15],0.40
same,logarithmic value of ratio of IC40 values,[16],0.22
same,logarithmic value of ratio of IC40 values,[17],0.28
same,logarithmic value of ratio of IC40 values,[18],0.35
same,logarithmic value of ratio of IC40 values,[19]; [21],0.22
same,logarithmic value of ratio of IC40 values,[19]; [22],−0.05
same,logarithmic value of ratio of IC40 values,[20],−0.07
C=CC1=C(C)c2cc3[n-]c(cc4nc(cc5[n-]c(cc1n2)c(C)c5CCC(=O)O)C(CCC(=O)O)=C4C)c(C)c3C=C.[Cl-].[Cl-].[Sn+4] [SnPP],logarithmic value of ratio of IC40 values,[1],0.28
same,logarithmic value of ratio of IC40 values,[2],0.32
same,logarithmic value of ratio of IC40 values,[3],−0.23
same,logarithmic value of ratio of IC40 values,[4],0.00
same,logarithmic value of ratio of IC40 values,[5],0.00
same,logarithmic value of ratio of IC40 values,[6],0.14
same,logarithmic value of ratio of IC40 values,[7],−0.17
same,logarithmic value of ratio of IC40 values,[8],0.24
same,logarithmic value of ratio of IC40 values,[9],−0.15
same,logarithmic value of ratio of IC40 values,[10],0.10
same,logarithmic value of ratio of IC40 values,[11],−0.33
same,logarithmic value of ratio of IC40 values,[12],0.51
same,logarithmic value of ratio of IC40 values,[13],0.24
same,logarithmic value of ratio of IC40 values,[14],0.10
same,logarithmic value of ratio of IC40 values,[15],−0.49
same,logarithmic value of ratio of IC40 values,[16],0.11
same,logarithmic value of ratio of IC40 values,[17],−0.40
same,logarithmic value of ratio of IC40 values,[18],0.138
same,logarithmic value of ratio of IC40 values,[19]; [21],−0.14
same,logarithmic value of ratio of IC40 values,[19]; [22],0.00
same,logarithmic value of ratio of IC40 values,[20],−0.25

# — patent US20040086901A1, “Database for analyzing gene function and method of analyzing gene function by dspa” (priority 2000, published 2004)
